This note sets out measurements from patent US10370333B2 (Sanford Burnham Prebys Medical Discovery Institute, priority 2012, dated 2019).

As a reminder, the IC50 is the concentration needed to halve the response being measured.

Where only a bound is given, the exact number is not on record here.

The target in the test is TNAP (Homo sapiens (Human), UniProt P05186). The test can be described thus: TNAP (PPi) inhibition assay, pyrophosphate as substrate. It counts as biochemical. A digest of the protocol:
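Secreted epitope-tagged human TNAP from transiently transfected COS-1 cells, dialyzed to remove phosphate. Inhibitors tested kinetically at pH 7.4 with PPi as substrate; released phosphate quantified colorimetrically with Biomol Green reagent.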
Regarding `COc1ccc(OC)c(S(=O)(=O)Nc2cncc(-c3cscn3)c2)c1` [Example III-85, 2,5-Dimethoxy-N-(5-(thiazol-4-yl)pyridin-3-yl)benzenesulfonamide], the IC50 is < 100 nM. As to `COc1ccc(Br)cc1S(=O)(=O)Nc1cncc(-c2cscn2)c1` [Example III-86, 5-Bromo-2-methoxy-N-(5-(thiazol-4-yl)pyridin-3-yl)benzenesulfonamide], the IC50 was < 100 nM. On to `COc1ccc(Cl)cc1S(=O)(=O)Nc1cncc(-c2cscn2)c1` [Example III-87, 5-Chloro-2-methoxy-N-(5-(thiazol-4-yl)pyridin-3-yl)benzenesulfonamide], for which the IC50 is < 100 nM.

Consider `COc1ccc(OC)c(S(=O)(=O)Nc2cncc(-c3cnn(C)c3)c2)c1` [Example III-88, 2,5-Dimethoxy-N-(5-(1-methyl-1H-pyrazol-4-yl)pyridin-3-yl)benzenesulfonamide], for which the IC50 is < 100 nM. Consider `COc1ccc(Br)cc1S(=O)(=O)Nc1cncc(-c2cnn(C)c2)c1` [Example III-89, 5-Bromo-2-methoxy-N-(5-(1-methyl-1H-pyrazol-4-yl)pyridin-3-yl)benzenesulfonamide], for which the IC50 is < 100 nM.

Consider `COc1ccc(Cl)cc1S(=O)(=O)Nc1cncc(-c2cnn(C)c2)c1` [Example III-90, 5-Chloro-2-methoxy-N-(5-(1-methyl-1H-pyrazol-4-yl)pyridin-3-yl)benzenesulfonamide], for which the IC50 was < 100 nM. In the case of `COc1ccc(OC)c(S(=O)(=O)Nc2cncc(-c3ncccn3)c2)c1` [Example III-91, 2,5-Dimethoxy-N-(5-(pyrimidin-2-yl)pyridin-3-yl)benzenesulfonamide], the IC50 is 100 to 1000 nM. As to `COc1ccc(Br)cc1S(=O)(=O)Nc1cncc(-c2ncccn2)c1` [Example III-92, 5-Bromo-2-methoxy-N-(5-(pyrimidin-2-yl)pyridin-3-yl)benzenesulfonamide], the IC50 is < 100 nM. For the compound `COc1ccc(Cl)cc1S(=O)(=O)Nc1cncc(-c2ncccn2)c1` [Example III-93, 5-Chloro-2-methoxy-N-(5-(pyrimidin-2-yl)pyridin-3-yl)benzenesulfonamide], the IC50 is < 100 nM. Regarding `COc1ccc(OC)c(S(=O)(=O)Nc2cncc(-c3cnccn3)c2)c1` [Example III-94, 2,5-Dimethoxy-N-(5-(pyrazin-2-yl)pyridin-3-yl)benzenesulfonamide], the IC50 is < 100 nM. Turning to `COc1ccc(Br)cc1S(=O)(=O)Nc1cncc(-c2cnccn2)c1` [Example III-95, 5-Bromo-2-methoxy-N-(5-(pyrazin-2-yl)pyridin-3-yl)benzenesulfonamide], the IC50 is < 100 nM. `COc1ccc(Cl)cc1S(=O)(=O)Nc1cncc(-c2cnccn2)c1` [Example III-96, 5-Chloro-2-methoxy-N-(5-(pyrazin-2-yl)pyridin-3-yl)benzenesulfonamide]: the IC50 was < 100 nM. Consider `COC(=O)c1cncc(NS(=O)(=O)c2cc(Br)ccc2OC)c1` [Example IV-1, Methyl 5-(5-bromo-2-methoxyphenylsulfonamido)nicotinate], for which the IC50 is < 100 nM.

As for `CCOC(=O)c1cncc(NS(=O)(=O)c2cc(Br)ccc2OC)c1` [Example IV-2, Ethyl 5-(5-bromo-2-methoxyphenylsulfonamido)nicotinate], the IC50 is < 100 nM. `CCCOC(=O)c1cncc(NS(=O)(=O)c2cc(Br)ccc2OC)c1` [Example IV-3, Propyl 5-(5-bromo-2-methoxyphenylsulfonamido)nicotinate]: the IC50 is < 100 nM. On to `COc1ccc(Br)cc1S(=O)(=O)Nc1cncc(C(=O)OC2CCCCC2)c1` [Example IV-4, Cyclohexyl 5-(5-bromo-2-methoxyphenylsulfonamido)nicotinate], for which the IC50 is < 100 nM.

In the case of `COc1ccc(Br)cc1S(=O)(=O)Nc1cncc(C(=O)Oc2ccccc2)c1` [Example IV-5, Phenyl 5-(5-bromo-2-methoxyphenylsulfonamido)nicotinate], the IC50 is < 100 nM. `CCOC(=O)c1cncc(NS(=O)(=O)c2cc(Cl)ccc2OC)c1` [Example IV-7, Ethyl 5-(5-chloro-2-methoxyphenylsulfonamido)nicotinate]: the IC50 is < 100 nM.

As to `CCCOC(=O)c1cncc(NS(=O)(=O)c2cc(Cl)ccc2OC)c1` [Example IV-8, Propyl 5-(5-chloro-2-methoxyphenylsulfonamido)nicotinate], the IC50 was < 100 nM. As for `COc1ccc(Cl)cc1S(=O)(=O)Nc1cncc(C(=O)OC2CCCCC2)c1` [Example IV-9, Cyclohexyl 5-(5-chloro-2-methoxyphenylsulfonamido)nicotinate], the IC50 is < 100 nM. For `COc1ccc(Cl)cc1S(=O)(=O)Nc1cncc(C(=O)Oc2ccccc2)c1` [Example IV-10, Phenyl 5-(5-chloro-2-methoxyphenylsulfonamido)nicotinate], the IC50 was < 100 nM. Consider `COC(=O)c1cncc(NS(=O)(=O)c2cc(OC)ccc2OC)c1` [Example IV-11, Methyl 5-(2,5-dimethoxyphenylsulfonamido)nicotinate], for which the IC50 is < 100 nM.

With `CCOC(=O)c1cncc(NS(=O)(=O)c2cc(OC)ccc2OC)c1` [Example IV-12, Ethyl 5-(2,5-dimethoxyphenylsulfonamido)nicotinate], the IC50 is < 100 nM.

Regarding `CCCOC(=O)c1cncc(NS(=O)(=O)c2cc(OC)ccc2OC)c1` [Example IV-13, Propyl 5-(2,5-dimethoxyphenylsulfonamido)nicotinate], the IC50 was < 100 nM. `COc1ccc(OC)c(S(=O)(=O)Nc2cncc(C(=O)OC3CCCCC3)c2)c1` [Example IV-14, Cyclohexyl 5-(2,5-dimethoxyphenylsulfonamido)nicotinate]: the IC50 was < 100 nM. Consider `COc1ccc(OC)c(S(=O)(=O)Nc2cncc(C(=O)Oc3ccccc3)c2)c1` [Example IV-15, Phenyl 5-(2,5-dimethoxyphenylsulfonamido)nicotinate], for which the IC50 is < 100 nM. `CNC(=O)c1cncc(NS(=O)(=O)c2cc(Br)ccc2OC)c1` [Example IV-16, 5-(5-Bromo-2-methoxyphenylsulfonamido)-N-methylnicotinamide]: the IC50 was in the range of 100 to 1000 nM. Regarding `CCNC(=O)c1cncc(NS(=O)(=O)c2cc(Br)ccc2OC)c1` [Example IV-18, 5-(5-Bromo-2-methoxyphenylsulfonamido)-N-ethylnicotinamide], the IC50 was 100 to 1000 nM.

In turn, `CCCNC(=O)c1cncc(NS(=O)(=O)c2cc(Br)ccc2OC)c1` [Example IV-19, 5-(5-Bromo-2-methoxyphenylsulfonamido)-N-propylnicotinamide] displayed an IC50 of 100 to 1000 nM.

For `COc1ccc(Br)cc1S(=O)(=O)Nc1cncc(C(=O)NC2CCCCC2)c1` [Example IV-20, 5-(5-Bromo-2-methoxyphenylsulfonamido)-N-cyclohexylnicotinamide], the IC50 was < 100 nM. `COCCNC(=O)c1cncc(NS(=O)(=O)c2cc(Br)ccc2OC)c1` [Example IV-21, 5-(5-Bromo-2-methoxyphenylsulfonamido)-N-(2-methoxyethyl)nicotinamide] showed an IC50 of 100 to 1000 nM. Turning to `COc1ccc(Br)cc1S(=O)(=O)Nc1cncc(C(=O)NCCN(C)C)c1` [Example IV-22, 5-(5-Bromo-2-methoxyphenylsulfonamido)-N-(2-(dimethylamino)ethyl)nicotinamide], the IC50 lay within 100 to 1000 nM.
